Assay results from ChEMBL document CHEMBL3813645, “Design, synthesis of 2,3-disubstitued 4(3H)-quinazolinone derivatives as anti-inflammatory and analgesic agents: COX-1/2 inhibitory activities and molecular docking studies” (Bioorg Med Chem, 2016).

How the values were obtained:
[1] = tested on: Rattus norvegicus; experiment: Antiinflammatory activity in ip dosed rat carrageenan-induced foot paw edema model measured after 2 hrs by plethysmometric analysis; format: functional
[2] = tested on: Mus musculus; experiment: Analgesic activity in ip dosed albino Swiss mouse assessed as nociceptive response measured after 60 mins by hot plate method; format: functional; conditions: 1 h
[3] = biological target: T1, Prostaglandin G/H synthase 1 (Ovis aries, UniProt P05979); experiment: Inhibition of ovine COX1 using arachidonic acid as substrate preincubated for 5 mins followed by substrate addition by ELISA
T1 sequence (P05979 whole entry): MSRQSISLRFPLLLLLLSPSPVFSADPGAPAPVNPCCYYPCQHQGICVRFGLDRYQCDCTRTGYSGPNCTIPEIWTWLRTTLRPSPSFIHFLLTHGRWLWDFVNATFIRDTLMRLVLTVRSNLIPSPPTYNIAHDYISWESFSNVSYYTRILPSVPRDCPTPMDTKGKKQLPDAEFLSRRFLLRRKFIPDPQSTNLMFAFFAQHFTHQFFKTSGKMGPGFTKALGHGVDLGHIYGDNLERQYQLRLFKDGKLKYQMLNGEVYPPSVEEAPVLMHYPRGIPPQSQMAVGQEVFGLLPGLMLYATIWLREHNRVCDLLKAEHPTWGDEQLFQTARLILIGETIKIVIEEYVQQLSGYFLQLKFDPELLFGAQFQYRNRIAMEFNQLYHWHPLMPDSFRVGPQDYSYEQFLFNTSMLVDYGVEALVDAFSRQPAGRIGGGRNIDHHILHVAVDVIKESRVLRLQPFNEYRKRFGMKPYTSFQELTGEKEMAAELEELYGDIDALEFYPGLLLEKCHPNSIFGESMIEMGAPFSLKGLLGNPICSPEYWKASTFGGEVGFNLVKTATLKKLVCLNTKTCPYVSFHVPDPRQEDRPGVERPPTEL

`O=C(CSc1nc2ccccc2c(=O)n1CCc1ccccn1)NNS(=O)(=O)c1ccc(Br)cc1` was tested. Which ED50 [1] did it give?
Its ED50 is greater than 200 mg/kg.

Which ED50 [1] does the source give for `O=C(CSc1nc2ccccc2c(=O)n1CCc1ccccn1)Nc1ccccc1` here?
The ED50 was greater than 200 mg/kg.

How did the ED50 [2] turn out when `O=C(CSc1nc2ccccc2c(=O)n1CCc1ccccn1)N/N=C/c1ccccc1` was run?
The ED50 was 54.5 mg/kg.

And the ED50 [1]?
The ED50 was 104 mg/kg.

Which ED50 [2] does the source give for `COc1ccc(NC(=O)CSc2nc3ccccc3c(=O)n2CCc2ccccn2)cc1` here?
The ED50 was 111 mg/kg.

What about the IC50 [3] of the same compound?
Its IC50 is greater than 100 µM.

And the ED50 [1]?
Its ED50 is 81.5 mg/kg.

Which ED50 [2] does the source give for `COc1cc(NC(=O)CSc2nc3ccccc3c(=O)n2CCc2ccccn2)cc(OC)c1OC` here?
The ED50 was 60.3 mg/kg.

And the IC50 [3]?
Its IC50 is greater than 100 µM.

And the ED50 [1]?
The ED50 was 65.3 mg/kg.

With `O=C(CSc1nc2ccccc2c(=O)n1CCc1ccccn1)NCc1ccccc1` as the compound, how does the ED50 [1] read?
The ED50 was greater than 200 mg/kg.

How did the ED50 [1] turn out when `NC(=O)CSc1nc2ccccc2c(=O)n1CCc1ccccn1` was run?
The ED50 was greater than 200 mg/kg.

For `COc1cc(/C=N/NC(=O)CSc2nc3ccccc3c(=O)n2CCc2ccccn2)cc(OC)c1OC`, which ED50 [1] is on record?
The ED50 was greater than 200 mg/kg.

Which ED50 [2] does the source give for `O=C(CSc1nc2ccccc2c(=O)n1CCc1ccccn1)N/N=C/c1ccc(Cl)cc1` here?
The ED50 was 33.7 mg/kg.

What about the ED50 [1] of the same compound?
Its ED50 is 66.6 mg/kg.

With `COc1ccc(S(=O)(=O)NNC(=O)CSc2nc3ccccc3c(=O)n2CCc2ccccn2)cc1OC` as the compound, how does the ED50 [1] read?
The ED50 was greater than 200 mg/kg.

`O=C(CSc1nc2ccccc2c(=O)n1CCc1ccccn1)c1ccc(F)cc1` was tested. Which ED50 [2] did it give?
The ED50 was 78.1 mg/kg.

And the IC50 [3]?
Its IC50 is greater than 100 µM.

And the ED50 [1]?
The ED50 was 91.2 mg/kg.

How did the ED50 [2] turn out when `COc1ccc(/C=N/NC(=O)CSc2nc3ccccc3c(=O)n2CCc2ccccn2)cc1OC` was run?
The ED50 was 78.5 mg/kg.

What about the ED50 [1] of the same compound?
Its ED50 is 112 mg/kg.

`COc1ccc(C(=O)CSc2nc3ccccc3c(=O)n2CCc2ccccn2)cc1` was tested. Which ED50 [1] did it give?
Its ED50 is greater than 200 mg/kg.

With `O=C(CSc1nc2ccccc2c(=O)n1CCc1ccccn1)c1ccccc1` as the compound, how does the ED50 [1] read?
Its ED50 is greater than 200 mg/kg.

`O=C(CSc1nc2ccccc2c(=O)n1CCc1ccccn1)Nc1ccc(F)cc1` was tested. Which ED50 [2] did it give?
Its ED50 is 12.3 mg/kg.

And the IC50 [3]?
Its IC50 is greater than 100 µM.

What about the ED50 [1] of the same compound?
Its ED50 is 50.3 mg/kg.

`COc1cc(NC(=O)CCSc2nc3ccccc3c(=O)n2CCc2ccccn2)cc(OC)c1OC` was tested. Which ED50 [2] did it give?
The ED50 was 80.3 mg/kg.

And the IC50 [3]?
Its IC50 is greater than 100 µM.

And the ED50 [1]?
Its ED50 is 74.2 mg/kg.

How did the ED50 [2] turn out when `O=c1c2ccccc2nc(S)n1CCc1ccccn1` was run?
Its ED50 is 98.2 mg/kg.

What about the IC50 [3] of the same compound?
Its IC50 is greater than 100 µM.

And the ED50 [1]?
Its ED50 is 102 mg/kg.

Which ED50 [2] does the source give for `COc1ccc(/C=N/NC(=O)CSc2nc3ccccc3c(=O)n2CCc2ccccn2)cc1` here?
Its ED50 is 50.3 mg/kg.

What about the ED50 [1] of the same compound?
The ED50 was 67.5 mg/kg.

For `CCOC(=O)CSc1nc2ccccc2c(=O)n1CCc1ccccn1`, which ED50 [1] is on record?
Its ED50 is greater than 200 mg/kg.

How did the ED50 [1] turn out when `O=C(CSc1nc2ccccc2c(=O)n1CCc1ccccn1)NNS(=O)(=O)c1ccccc1` was run?
The ED50 was greater than 200 mg/kg.

What does the source list for `NNC(=O)CSc1nc2ccccc2c(=O)n1CCc1ccccn1`?
ED50 [2]: 40.3 mg/kg; IC50 [3]: > 100 µM; ED50 [1]: 74.5 mg/kg

How did the ED50 [2] turn out when `Cc1ccc(-c2cc(C(F)(F)F)nn2-c2ccc(S(N)(=O)=O)cc2)cc1` [CELECOXIB] was run?
The ED50 was 71 mg/kg.

`O=C(O)Cc1ccccc1Nc1c(Cl)cccc1Cl` [DICLOFENAC] was tested. Which ED50 [2] did it give?
Its ED50 is 100 mg/kg.

What about the ED50 [1] of the same compound?
The ED50 was 112 mg/kg.
